According to patent US20210030757A1, “METHOD OF TREATMENT AND COMPOSITIONS COMPRISING A DUAL P13K DELTA-GAMMA KINASE INHIBITOR AND A CORTICOSTEROID” (priority 2014, published 2021):

Assays:
[1] = tested on: human neutrophils from healthy volunteers; test: CSE-induced IL-8 release in peripheral blood neutrophils from healthy non-smokers; format: cell-based; conditions: stimulus CSE 5%, 6 h, mean ± SEM; for IC50: Homo sapiens, Neutrophil, read-out: −log IC50 (IL-8 release) (converted)
Experimental: (§1) Neutrophils were isolated from peripheral venous blood by standard laboratory procedures. In brief, peripheral venous blood was mixed with dextran 500 at 3% (in 0.9% saline) in a proportion of 2:1. This mixture was incubated at room temperature for 30 min until erythrocytes were sedimented. The upper phase was carefully collected and added on Ficoll-Paque Histopaque 1077 (Amershan Pharmacia Biotech, Barcelona, Espana) density gradient in a proportion of 3:1. The two phases generated were centrifuged at 150 g, 4° C. for 30 min. Thus, the pellet obtained (which is consisted a mixture of neutrophils and low proportion of residual erythrocytes and traces of eosinophils and basophils) was resuspended in an erythrocyte lysis buffer (Biolegend, UK) for 5 min in ice. Cell suspension was washed two times with phosphate buffer (PBS). […] Neither purity nor viability was affected in the study's different experimental conditions.
(§2) CSE was prepared as follows: Briefly, the smoke of a research cigarette (2R4F; Tobacco Health Research, University of Kentucky, Ky., USA) was generated by a respiratory pump (Apparatus Rodent Respirator 680; Harvard, Germany) through a puffing mechanism related to the human smoking pattern (3 puff/min; 1 puff 35 ml; each puff of 2 s duration with 0.5 cm above the filter) and was bubbled into a flask containing 25 ml of pre-warmed (37° C.) Roswell Park Memorial Institute (RPMI)-1640 culture medium. The CSE solution was sterilized by filtration through a 0.22-μm cellulose acetate sterilizing system (Corning, N.Y.). The resultant CSE solution was considered to be 100% CSE and was used for experiments within 30 min of preparation. CSE 10% corresponds approximately to the exposure associated with smoking two packs per day. The quality of the prepared CSE solution was assessed based on the absorbance at 320 nm, which is the specific absorption wavelength of peroxynitrite. Stock solutions with an absorbance value of 3.0±0.1 were used. To test for cytotoxicity from CSE, isolated neutrophils were treated with CSE concentrations of up to 5% for […].
(§3) Isolated human neutrophils from healthy volunteers and COPD patients were incubated with Compound A (0.01 nM-100 μM) and Dexamethasone (0.1 nM-1 μM) or vehicle for 30 minutes before incubation with or without CSE 5% for 6 hours in standard cell culture conditions (37° C. and 5% CO2). Supernatants were collected to measure different inflammatory markers.
(§4) IL-8 was measured by ELISA using a commercially available kit.
(§5) Experiments were done in triplicate in […] three patients per experimental condition.
(§6) Neutrophils from healthy and COPD patients were stimulated with CSE 5% in the presence of Compound A (0.01 nM-100 μM) or dexamethasone (DEX; 0.1 nM-1 μM) for 6 h and IL-8 supernatants were measured.

PI3Kγ = PI3Kγ mRNA expression in peripheral neutrophils from COPD patients (RT-PCR); format: cell-based, human; conditions: CSE 5%; 10 nM or 100 nM Compound A
Experimental: (§7) Measurement of basal RNA expression of corticosteroid resistant mediators: Total RNA was isolated from peripheral human neutrophils from COPD patients in basal conditions and after experimental conditions. Cells were homogenized and RNA was extracted using TriPure® Isolation Reagent (Roche, Indianapolis, USA). The reverse transcription was performed in 300 ng of total RNA with TaqMan reverse transcription reagents kit (Applied Biosystems, Perkin-Elmer Corporation, CA, USA). 1.5 μl of result cDNA was amplified with specific predesigned primers (Applied Biosystems) for MIF (cat no Hs00236988), MKP-1 (cat no Hs00610256), PI3K-δ (cat n° Hs00192399), PI3Kγ (cat n° Hs00277090) and GAPDH (cat no 4310884E) as endogenous control in a 7900HT Fast Real-Time PCR System (Applied Biosystem) using Universal Master Mix (Applied Biosystems). Relative quantification of these different transcripts was determined with the 2^−ΔΔct method and normalized to control groups.
(§8) mRNA expression of the MIF, MKP-1, PI3K-δ and PI3Kγ genes was measured in basal conditions and at the end of the experiments.
(§9) Experiments were done in triplicate in at least three patients per experimental condition.

MIF = MIF mRNA expression in peripheral neutrophils from COPD patients (RT-PCR); format: cell-based, human; conditions: CSE 5%; Compound A exposure
Experimental: as §7, §8, §9

[2] = tested on: human neutrophils from COPD patients; test: CSE-induced IL-8 release in peripheral blood neutrophils from COPD patients; format: cell-based; conditions: stimulus CSE 5%, 6 h, mean ± SEM; for IC50: Homo sapiens, Neutrophil, read-out: −log IC50 (IL-8 release) (converted)
Experimental: as §1, §2, §3, §4, §5, §6

MKP-1 = MKP-1 mRNA expression in peripheral neutrophils from COPD patients (RT-PCR); format: cell-based, human; conditions: CSE 5%; 10 nM or 100 nM Compound A
Experimental: as §7, §8, §9

Balb/c mice [3] = test: Chronic cigarette smoke induced cell infiltration in male Balb/c mice (BALF cells and cytokines); format: in vivo
Experimental: Animals were acclimatized for seven days prior to the start of the experiment. Animals were randomly distributed to various groups based on their body weights. Mice were exposed to the mainstream smoke of 2 cigarettes from day 1 to day 11. Exposure to the smoke of each cigarette lasted for 10 min (each cigarette was completely burned in the first two minutes, followed by an air flow with animal ventilator) and were exposed for the next 20 min with fresh room air. After every second cigarette an additional break of 20 min with exposure to fresh room air was conducted. Control animals were exposed to the room air chamber. Test compound was administered by the intranasal route as suspension from day 12 to day 14 before 30 mins whole body smoke exposure. Mice were exposed to the mainstream smoke of 1 cigarette from day 12 to day 14. On day 15, 24 hours after the last cigarette smoke (CS) exposure animals were exsanguinated under anaesthesia, and the trachea was cannulated and the lungs were lavaged with 0.5 ml aliquots of heparinised PBS (1 unit/ml) four times through tracheal cannula (total volume 2 ml). Bronchioalveolar (BAL) collected was stored at 2-8° C. until assayed for total cell and differential leukocyte count. BAL fluid was centrifuged (500×g for 10 min) and the resulting cell pellet was resuspended in 0.5 ml of heparinised saline. The total number of white blood cells was determined in BAL fluid and blood using a blood cell counter and adjusted to 1×10^6 cell/ml. Differential cell count was calculated manually. Forty microliters of the cell suspension was centrifuged using cytospin 3 to prepare a cell smear. The cell smear was stained with a blood staining solution for differentiation and microscopically observed by identifying each cell according to its morphological characteristics. The number of each cell type among 300 white blood cells in the cell smear was determined and expressed as a percentage, and the number of neutrophils and macrophages in each BAL fluid were calculated. In addition BAL supernatant were analysed for various cytokinines using ELISA assay.

PI3K = PI3K activity (PIP3 production, PI3-Kinase Activity ELISA) in neutrophils from COPD patients; format: cell-based, human; conditions: Compound A 10 nM, 1 h, CSE 5% 30 min
Experimental: Measurement of Pi3K isoforms: To measure PI3K activity, neutrophils from COPD patients were isolated and incubated with Compound A at 10 nM for 1 h. Then cells were stimulated with CSE 5% for 30 min. After cell stimulation, neutrophils were centrifuged and total protein was extracted from neutrophils. Total protein amount was measured using The Bio-Rad assay (Bio-Rad Laboratories Ltd., Herts, UK) to ensure equal amount. PI3K activity was measured using the PI3-Kinase Activity ELISA: Pico (cat. no k-1000 s, Echelon Bioscience, Salt Lake City, USA) according to the manufacturer's protocol. In brief, PI3-K reactions were run with the Class I PI3-K physiological substrate PI(4,5)P2 (PIP2). The enzyme reactions, PIP3 standards and controls were then mixed and incubated with PIP3 binding protein that is highly specific and sensitive to PIP3. This mixture was then transferred to a PIPI3-coated microplate for competitive binding. Afterwards, a peroxidase-linked secondary detector and colorimetric detection was used to detect the amount of PIP3 produced by PI3-K through comparing the enzyme reactions with a PIP3 standard curve.
as §9

Balb/c mice [4] = test: Reversal of corticosteroid insensitivity in chronic cigarette smoke induced cell infiltration in male Balb/c mice; format: in vivo; conditions: Mus musculus, Macrophage, inhaled or nasal; murine chronic COPD model; intranasal; read-out: ED50 (cell count in BAL, macrophage infiltration)
Experimental: Animals were acclimatized for seven days prior to the start of the experiment. Animals were randomly distributed to various groups based on their body weights. Mice were exposed to the mainstream smoke of 2 cigarettes from day 1 to day 11. Exposure to the smoke of each cigarette lasted for 10 min (each cigarette was completely burned in the first two minutes, followed by an air flow with animal ventilator) and were exposed for the next 20 min with fresh room air. After every second cigarette an additional break of 20 min with exposure to fresh room air was conducted. Control animals were exposed to the room air chamber. Corticosteroid, fluticasone was administered by intranasal route from day 6 to day 11 before 30 mins whole body smoke exposure. Mice were exposed to the mainstream smoke of 1 cigarette from day 12 to day 14. […] The total number of white blood cells was determined in BAL fluid and blood using a blood cell counter and adjusted to 1×10^6 cell/ml. Differential cell count was calculated manually. […] The number of each cell type among 300 white blood cells in the cell smear was determined and expressed as a percentage, and the number of neutrophils and macrophages in each BAL fluid were calculated. In addition BAL supernatant were analysed for various cytokines using ELISA assay.

CC(C)Oc1ccc(-c2nn([C@@H](C)c3oc4cccc(F)c4c(=O)c3-c3cccc(F)c3)c3ncnc(N)c23)cc1F [Compound A]
IC50 [1]: 295 nM
Maximal % Inhibition of IL-8 release [1]: 97.4±5.3%
CSE induced PI3Kγ expression (mRNA) (PI3Kγ): significant reduction
expression of MIF (mRNA) (MIF): not significantly affected
IC50 [2]: 47.9 nM
Maximal % Inhibition of IL-8 release [2]: 85.14%
expression of MKP1 (mRNA) (MKP-1): increased the expression of MKP1 near to control levels
Macrophage count in BAL fluid (Balb/c mice [3]; 0.003-3 mg/kg intranasal, day 12 to 14, vs disease controls): significantly reduced toward normal
IFNγ in BALF (% inhibition) (Balb/c mice [3]; dose 0.003 mg/kg intranasal): 0%
IL-6 in BALF (% inhibition) (Balb/c mice [3]; dose 0.003 mg/kg intranasal): 11%
IL-12/IL-23 in BALF (% inhibition) (Balb/c mice [3]; dose 0.003 mg/kg intranasal): 0%
TNFα in BALF (% inhibition) (Balb/c mice [3]; dose 0.003 mg/kg intranasal): 17%
IFNγ in BALF (% inhibition) (Balb/c mice [3]; dose 0.03 mg/kg intranasal): 25%
IL-6 in BALF (% inhibition) (Balb/c mice [3]; dose 0.03 mg/kg intranasal): 44%
IL-12/IL-23 in BALF (% inhibition) (Balb/c mice [3]; dose 0.03 mg/kg intranasal): 0%
TNFα in BALF (% inhibition) (Balb/c mice [3]; dose 0.03 mg/kg intranasal): 40%
IFNγ in BALF (% inhibition) (Balb/c mice [3]; dose 0.3 mg/kg intranasal): 90%
IL-6 in BALF (% inhibition) (Balb/c mice [3]; dose 0.3 mg/kg intranasal): 99%
IL-12/IL-23 in BALF (% inhibition) (Balb/c mice [3]; dose 0.3 mg/kg intranasal): 100%
TNFα in BALF (% inhibition) (Balb/c mice [3]; dose 0.3 mg/kg intranasal): 99%
PI3K activity measured as PIP3 production (PI3K): completely suppressed
ED50 (Balb/c mice [4]): 0.093 mg/kg

C[C@@H]1C[C@H]2[C@@H]3CCC4=CC(=O)C=C[C@]4(C)[C@@]3(F)[C@@H](O)C[C@]2(C)[C@@]1(O)C(=O)CO [dexamethasone, reference compound]
IC50 [1]: 14.1 nM
Maximal % Inhibition of IL-8 release [1]: 83.9%
IC50 [2]: 13.5 nM
Maximal % Inhibition of IL-8 release [2]: 19.84 ± 11.46 %
